Source: US20230027072A1, “IMPROVED METHODS, KITS, COMPOSITIONS AND DOSING REGIMENS FOR THE USE OF HETEROCYCLIC INHIBITORS OF ERK1 AND ERK2” (Asana Biosciences, LLC, priority 2019, published 2023)
Read-outs that look alike come from different tables or passages of the source.

Tests used:
[1] = test system: HCT116 (colorectal carcinoma, K Ras G13D) cells; assay: Cell proliferation (Alamar Blue) assay, HCT116; format: cell-based, human
Procedure: Cell Proliferation (Alamar Blue) Assay
HT-29 (colorectal carcinoma, B-RafV600E), HCT116 (colorectal carcinoma, K Ras G13D), A375 (melanoma, B-RafV600E) and SK-Mel2 (melanoma, NRAS Q61R) cells (obtained from ATCC, USA) were seeded (5000 cells/well) in 96-well tissue culture plate and incubated at 37° C./5% CO2 for 16-24 hours. The cells were then treated with compounds, at concentrations typically from 0.0005 to 10 uM prepared in 3-fold serial dilutions. The plates were then incubated for 72 h at 37° C./5% CO2 in a moist environment. Then Alamar Blue™ reagent (final concentration 1×) was added to each well and incubated for 1-3 h at 37° C./5% CO2. The plates were read on fluorescence reader at 540 nm excitation and 590 nm emission wavelengths. The IC50 values were subsequently determined using a sigmoidal dose-response curve (variable slope) using GraphPad Prism® 5 software. Compounds of the present disclosure caused inhibition of HT-29, HCT116, A375 and SK-Mel2 cell proliferation as determined in these assays.

[2] = test system: phosphorylation of RSK1(S380) (the downstream target of ERK1/2); assay: Mechanistic (phospho-RSK1(S380) ELISA) assay in HT-29 cells; format: cell-based, human; conditions: 2 h treatment, read-out: Mechanistic Cell Assay RSK1 Phos HT29 IC50
Procedure: Mechanistic (Phospho-RSK1(5380) ELISA) Assay
HT-29 cells (colorectal carcinoma, B-RafV600E); obtained from ATCC, USA) were seeded (60,000 cells/well) in a 96-well plate and incubated at 37° C./5% CO2 overnight and then treated with desired compound dilutions for 2 h. Medium was removed and cells were rinsed once with ice-cold 1×PBS, then 0.070 mL ice-cold 1× cell lysis buffer containing 1 mM PMSF was added to each well and the plate was incubated on a shaker for 2 h and 30 min at 4° C. The plate was then centrifuged for 20 min (×4000 rpm) at 4° C. and the supernatant was transferred to a new plate. Cell lysates were diluted with sample diluent at a ratio of 1:1. The ELISA was then carried out following the manufacturer's protocol (PathScan® phospho-RSK1(Ser380) Sandwich ELISA Kit, Cell Signaling Technologies). The plate was read at 450 nm within 30 min after adding STOP solution. The IC50 values were subsequently determined using a sigmoidal dose-response curve (variable slope) in GraphPad Prism® 5 software. Compounds of the present disclosure inhibited phosphorylation of RSK1(5380) (the downstream target of ERK1/2) as determined in this assay.

Molecule	IC50 ([1]; Homo sapiens, HCT-116, 72 h)	IC50 ([2]; Homo sapiens, HT-29, 2 h)	IC50 ([1]; 72 h)	IC50 [2]
Cc1cnc(N[C@H]2CC[C@H](O)CC2)nc1-n1cnc(C(=O)N[C@H](CO)c2cccc(Cl)c2)c1 [Example 242, N-((S)-1-(3-chlorophenyl)-2-hydroxyethyl)-1-(2-(((1r,4S)-4-hydroxy-cyclohexyl)amino)-5-methyl-pyrimidin-4-yl)-1H-imidazole-4-carboxamide]	500 to 2500 nM	250 to 500 nM		
1-(2- (benzo[d][1,3]diox- ol-5-ylamino)-5- methylpyrimidin-4- yl)-N-(1-(4- fluorophenyl)-2- hydroxyethyl)-1H- pyrrole-3- carboxamide [Example 172]			250 to 500 nM	100 to 250 nM
N-((1s,3s)-1-(3- chlorophenyl)-3- hydroxycyclo- butyl)- 1-(5-methyl-2- ((tetrahydro-2H-4- yl)amino)pyrimi- din-4-yl)-1H- imidazole-4- carboxamide [Example 245]				250 to 500 nM
Cc1cnc(NC2CCOCC2)nc1-n1cnc(C(=O)NC(c2cccc(Cl)c2)C(C)O)c1 (stereo not shown) [Example 253, N-(1-(3-chlorophenyl)-2-hydroxypropyl)-1-(5-methyl-2-((tetrahydro-2H-pyran-4-yl)amino)-pyrimidin-4-yl)-1H-imidazole-4-carboxamide]			> 2500 nM	500 to 2500 nM
Cc1cnc(NC2CCOCC2)nc1-n1cnc(C(=O)NC(CN)c2ccc(Cl)s2)c1 (stereo not shown) [Example 274, N-(2-amino-1-(5-chlorothiophen-2-yl)ethyl)-1-(5-methyl-2-((tetrahydro-2H-pyran-4-yl)amino)pyrimidin-4-yl)-1H-imidazole-4-carboxamide]		100 to 250 nM		
Cc1cnc(NC2CCOCC2)nc1-n1cnc(C(=O)NC(c2cccc(Cl)c2)C(C)O)c1 (stereo not shown) [Example 252, N-(1-(3-chlorophenyl)-2-hydroxypropyl)-1-(5-methyl-2-((tetrahydro-2H-pyran-4-yl)amino)-pyrimidin-4-yl)-1H-imidazole-4-carboxamide]			250 to 500 nM	100 to 250 nM
N-(1-(3-chloro- phenyl)-2-hydroxy- ethyl)-1-(2-((3- fluoro-2-methoxy- phenyl)amion)-5- methylpyrimidin-4- yl)-1H-pyrrole-3- carboxamide [Example 143]			250 to 500 nM	250 to 500 nM
Cc1cnc(Nc2ccc(F)cc2Cl)nc1-n1ccc(C(=O)N[C@H](CO)c2cccc(Cl)c2)c1 [Compound 29, (S)-1-(2-((2-Chloro-4-fluorophenyl)amino)-5-methylpyrimidin-4-yl)-N-(1-(3-chlorophenyl)-2-hydroxyethyl)-1H-pyrrole-3-carboxamide]			500 to 2500 nM	
